Like-named read-outs stand apart in the source and are kept apart here.
What was measured:
[1] = tested on: maximal electroshock (MES) seizures; assay: MES (maximal electroshock) test, mice; assay type: in vivo; details: for MES N/F (animals active over number tested): 100 mg/kg
Excerpt: Evaluation of Compounds in MES Models of Seizures. […] These seizures are highly reproducible and are electrophysiologically consistent with human seizures. […] Abolition of the hindleg tonic extensor component of the seizure was used as the endpoint.

[2] = tested on: maximal electroshock (MES) seizures; assay: MES (maximal electroshock) test, rats; assay type: in vivo; details: for MES N/F (animals active over number tested): 30 mg/kg
Excerpt: Evaluation of Compounds in MES Models of Seizures. The MES is a model for generalized tonic-clonic seizures and provides an indication of a compound's ability to prevent seizure spread when all neuronal circuits in the brain are maximally active. These seizures are highly reproducible and are electrophysiologically consistent with human seizures. […] Abolition of the hindleg tonic extensor component of the seizure was used as the endpoint.

[3] = tested on: 6 Hz psychomotor seizures; assay: 6 Hz psychomotor seizure test, mice; assay type: in vivo; details: for 6 Hz N/F (animals active over number tested): 100 mg/kg; for ED50: Mus musculus
Protocol: Evaluation of Compounds in 6 Hz Pyschomotor Seizure Test
Compounds were tested using a 6 Hz psychomotor seizure test. […] For example, both the MES and scM models are insensitive to levetiracetam, a compound considered potentially useful in the management of refractory seizures. […] Thus, the 6 Hz test can serve as a therapy resistant screening paradigm of acute seizure activity.

[4] = Behavioral toxicity (TOX, TD50), rats; assay type: in vivo; details: rat, in vivo, IP, Table 15, read-out: TOX TD50
rats = assay: Behavioral toxicity (TOX, TD50), rats; assay type: in vivo; details: IP, 30 mg/kg
Nav1.6 = Nav1.6 (Homo sapiens, UniProt Q9UQD0); assay: % block of Nav1.6 at 100 μM and IC50 (NaV1.6); assay type: cell-based
How it was run: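 Nav1.6 block recorded as percent inhibition at 100 μM compound; IC50 also reported.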

in vivo = details: mouse, ip
NaV1.6 sodium channels = NaV1.6 sodium channels (Homo sapiens, UniProt Q9UQD0); assay: State-dependent inhibition: steady state inactivation, use-dependent block; assay type: cell-based
Excerpt: Evaluation of Compounds as State-Dependent Inhibitors
Use dependent block is an important characteristic for AED activity since it allows increased inhibition of sodium channels during increased neuronal activity as is observed during seizures.

[5] = tested on: Metrazol-induced clonic seizures; assay: scM (subcutaneous Metrazol) test, mice; assay type: in vivo
Protocol: (§1) Evaluation of Compounds in scM Models of Seizures. Subcutaneous injection of the convulsant Metrazol produces clonic seizures in laboratory animals. […] Animals may be pretreated with various doses of the test compound given by ip injection. At a previously determined TPE (time to peak) of the test compound, the dose of Metrazol which will induce convulsions in 97% of animals (CD97:85 mg/kg mice) may be injected into a loose fold of skin in the midline of the neck. The animals may be placed in isolation cages to minimize stress and observed for the next 30 min for the presence or absence of a seizure. An episode of clonic spasms, approximately 3-5 seconds, of the fore and/or hindlimbs, jaws, or vibrissae may be taken as the endpoint. […] The scM test represents acute animal seizures.

[6] = tested on: corneal kindled mice seizures; assay: Corneal kindled mice model; assay type: in vivo; details: for Avg. Score / N/F (animals active over number tested): TPE 0.5 hours
Protocol: Evaluation of Compounds in Corneal Kindled Mice Model.
Corneal kindled mice are kindled electrically via 3 second stimulation at 8 mA, 60 Hz through corneal electrodes to produce 10 consecutive stage […] seizures according to the Racine scale. Animals are defined as kindled once they progress to a reproducible stage 5 seizure. 72 hours after the mice have been kindled the test substance is administered and, according to a previously determined TPE (time to peak), the animals are electrically stimulated. The animals are considered protected when displaying a stage 3, or lower, seizure.

mice = details: mouse, in vivo, ip, 100 mg/kg
[7] = tested on: Metrazol-induced clonic seizures; assay: scM (subcutaneous Metrazol) test, rats; assay type: in vivo
Protocol: as §1

NaV1.6 sodium channels, sequence (Q9UQD0 whole entry): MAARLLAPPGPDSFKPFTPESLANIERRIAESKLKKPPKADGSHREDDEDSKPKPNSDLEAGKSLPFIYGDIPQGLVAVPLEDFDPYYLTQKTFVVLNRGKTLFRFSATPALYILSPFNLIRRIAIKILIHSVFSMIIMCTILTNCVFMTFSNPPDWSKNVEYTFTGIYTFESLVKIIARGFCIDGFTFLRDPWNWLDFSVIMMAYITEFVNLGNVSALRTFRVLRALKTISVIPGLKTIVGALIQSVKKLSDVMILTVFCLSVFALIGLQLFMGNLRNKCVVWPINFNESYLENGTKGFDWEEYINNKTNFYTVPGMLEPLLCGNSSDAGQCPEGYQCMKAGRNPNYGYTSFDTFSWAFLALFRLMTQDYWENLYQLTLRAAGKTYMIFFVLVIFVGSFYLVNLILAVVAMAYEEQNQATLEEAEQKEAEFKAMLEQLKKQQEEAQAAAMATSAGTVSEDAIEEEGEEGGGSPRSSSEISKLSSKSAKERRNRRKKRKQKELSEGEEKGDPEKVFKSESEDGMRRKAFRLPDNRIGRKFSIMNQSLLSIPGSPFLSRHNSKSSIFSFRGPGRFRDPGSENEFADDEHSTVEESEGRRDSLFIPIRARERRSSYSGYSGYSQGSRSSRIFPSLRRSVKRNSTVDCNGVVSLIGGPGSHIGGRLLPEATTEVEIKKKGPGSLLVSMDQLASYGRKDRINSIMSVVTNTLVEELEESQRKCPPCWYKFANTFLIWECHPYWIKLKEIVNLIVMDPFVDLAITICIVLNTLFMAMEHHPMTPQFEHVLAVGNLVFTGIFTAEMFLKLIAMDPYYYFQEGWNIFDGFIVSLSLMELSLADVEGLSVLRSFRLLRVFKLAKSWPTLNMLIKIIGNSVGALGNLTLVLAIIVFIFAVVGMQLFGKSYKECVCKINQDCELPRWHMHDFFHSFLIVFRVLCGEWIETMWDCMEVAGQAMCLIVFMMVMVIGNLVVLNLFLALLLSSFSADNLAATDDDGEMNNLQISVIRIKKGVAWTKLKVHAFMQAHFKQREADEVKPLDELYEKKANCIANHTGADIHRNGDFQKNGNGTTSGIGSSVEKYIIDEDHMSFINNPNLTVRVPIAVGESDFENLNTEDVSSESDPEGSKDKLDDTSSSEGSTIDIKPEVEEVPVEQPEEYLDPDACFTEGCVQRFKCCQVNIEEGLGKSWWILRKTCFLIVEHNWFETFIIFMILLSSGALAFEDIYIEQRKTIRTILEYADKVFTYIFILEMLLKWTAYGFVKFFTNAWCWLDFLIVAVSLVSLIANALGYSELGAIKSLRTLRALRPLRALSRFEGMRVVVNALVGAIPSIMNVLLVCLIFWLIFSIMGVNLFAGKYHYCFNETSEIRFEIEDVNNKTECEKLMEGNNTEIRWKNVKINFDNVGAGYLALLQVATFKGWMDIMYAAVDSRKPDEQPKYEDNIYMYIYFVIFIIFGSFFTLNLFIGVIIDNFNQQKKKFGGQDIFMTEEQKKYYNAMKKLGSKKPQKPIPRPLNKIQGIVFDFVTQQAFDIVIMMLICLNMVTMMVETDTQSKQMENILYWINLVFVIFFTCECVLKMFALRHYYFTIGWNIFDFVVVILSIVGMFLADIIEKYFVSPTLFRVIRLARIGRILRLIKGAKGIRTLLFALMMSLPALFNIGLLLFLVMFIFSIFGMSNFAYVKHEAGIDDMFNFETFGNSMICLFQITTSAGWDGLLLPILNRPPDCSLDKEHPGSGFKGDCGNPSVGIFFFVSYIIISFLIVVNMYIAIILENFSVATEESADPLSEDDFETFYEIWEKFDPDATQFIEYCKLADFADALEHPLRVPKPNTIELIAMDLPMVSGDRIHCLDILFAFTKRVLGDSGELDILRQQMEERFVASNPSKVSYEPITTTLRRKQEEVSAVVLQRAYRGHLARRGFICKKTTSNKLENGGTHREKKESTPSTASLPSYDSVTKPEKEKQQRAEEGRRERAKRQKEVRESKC
Nav1.6, sequence (Q9UQD0 whole entry): as above

Structure (SMILES): Clc1ccc2nc(-c3ccccc3)[nH]c2c1 [MV1066, 6-chloro-2-phenyl-1H-1,3-benzodiazole]
- ED50 ([1]; Mouse, time 0.5 hrs, read-out: ED50 from MES test): 44.2 mg/kg
- ED50 ([1]; Mus musculus, mice, IP, Table 14, read-out: MES ED50): 44.2 mg/kg
- MES N/F (animals active over number tested) ([1]; mice, IP, 0.25 h): 4/4
- MES N/F (animals active over number tested) ([1]; mice, IP, 0.5 h): 4/4
- MES N/F (animals active over number tested) ([1]; mice, IP, 1.0 h): 4/4
- MES N/F (animals active over number tested) ([1]; mice, IP, 2.0 h): 4/4
- MES N/F (animals active over number tested) ([1]; mice, IP, 4.0 h): 4/4
- ED50 ([2]; Rat, time 0.5 hrs, read-out: ED50 from MES test): 25.1 mg/kg
- ED50 ([2]; Rattus norvegicus, rats, IP, Table 15, read-out: MES ED50): 25.1 mg/kg
- MES N/F (animals active over number tested) ([2]; rats, IP, 0.25 h): 2/4
- MES N/F (animals active over number tested) ([2]; rats, IP, 0.5 h): 4/4
- MES N/F (animals active over number tested) ([2]; rats, IP, 1.0 h): 4/4
- MES N/F (animals active over number tested) ([2]; rats, IP, 2.0 h): 3/4
- MES N/F (animals active over number tested) ([2]; rats, IP, 4.0 h): 4/4
- 6 Hz N/F (animals active over number tested) ([3]; IP, 32 mA, 0.25 h): 4/4
- 6 Hz N/F (animals active over number tested) ([3]; IP, 32 mA, 0.5 h): 4/4
- 6 Hz N/F (animals active over number tested) ([3]; IP, 32 mA, 1.0 h): 3/4
- 6 Hz N/F (animals active over number tested) ([3]; IP, 32 mA, 2.0 h): 2/4
- 6 Hz N/F (animals active over number tested) ([3]; IP, 32 mA, 4.0 h): 0/4
- 6 Hz N/F (animals active over number tested) ([3]; IP, 44 mA, 0.25 h): 2/4
- 6 Hz N/F (animals active over number tested) ([3]; IP, 44 mA, 0.5 h): 2/4
- 6 Hz N/F (animals active over number tested) ([3]; IP, 44 mA, 1.0 h): 2/4
- 6 Hz N/F (animals active over number tested) ([3]; IP, 44 mA, 2.0 h): 0/4
- 6 Hz N/F (animals active over number tested) ([3]; IP, 44 mA, 4.0 h): 0/4
- ED50 ([3]; 32 mA, read-out: ED50 (6 Hz test)): 67.1 mg/kg
- ED50 ([3]; IP, 32 mA, Table 14, read-out: 6 Hz (32 mA) ED50): 67.1 mg/kg
- ED50 ([3]; IP, (14 mA) [sic], Table 14, read-out: 6 Hz (14 mA) ED50): 72.4 mg/kg
- TD50 [4]: > 500 mg/kg
- TOX N/F (animals toxic over number tested) (rats; 0.25 h): 0/4
- TOX N/F (animals toxic over number tested) (rats; 0.5 h): 0/4
- TOX N/F (animals toxic over number tested) (rats; 1.0 h): 0/4
- TOX N/F (animals toxic over number tested) (rats; 2.0 h): 0/4
- TOX N/F (animals toxic over number tested) (rats; 4.0 h): 0/4
- inhibition at 100 µM (Nav1.6; 100 μM compound): 95%
- IC50 (Nav1.6; NaV1.6, Table 2, MV1060-MV1091, unit inferred, read-out: IC50): 34.6 µM
- TD50 (in vivo): 383 mg/kg
- effect on current amplitude and activation gating (NaV1.6 sodium channels; 100 μM, 1 second pre-pulse): inhibits macroscopic current amplitude but has no effect on activation gating
- use-dependent block (NaV1.6 sodium channels; 20 Hz): profound use-dependent block
- affinity by holding potential (dose response) (NaV1.6 sodium channels; cells held at −100 mV or −60 mV, stepped to +10 mV): greater affinity for cells held at −60 mV
- ED50 ([5]; Mus musculus, mice, IP, Table 14, read-out: sCM ED50): 180 mg/kg
- ED50 ([5]; sc, Mouse, time 0.5 hrs, read-out: ED50 from scM test): 181 mg/kg
- Avg. Score ([6]; 35 mg/kg): 4.75
- N/F (animals active over number tested) ([6]; 35 mg/kg): 1/8
- Avg. Score ([6]; 72 mg/kg): 3.125
- N/F (animals active over number tested) ([6]; 72 mg/kg): 5/8
- Avg. Score ([6]; 90 mg/kg): 2.75
- N/F (animals active over number tested) ([6]; 90 mg/kg): 5/8
- Avg. Score ([6]; 120 mg/kg): 0.375
- N/F (animals active over number tested) ([6]; 120 mg/kg): 8/8
- ED50 ([6]; Mus musculus): 64.1 mg/kg
- TOX N/F (animals toxic over number tested) (mice; 0.5 h): 0/4
- TOX N/F (animals toxic over number tested) (mice; 1 h): 0/4
- TOX N/F (animals toxic over number tested) (mice; 2 h): 0/4
- TOX N/F (animals toxic over number tested) (mice; 4 h): 0/4
- ED50 ([7]; Rattus norvegicus, rats, IP, Table 15, read-out: sCM ED50): 96.9 mg/kg
- ED50 ([7]; sc, Rat, time 0.5 hrs, read-out: ED50 from scM test): 97 mg/kg

From US12403128B2, “Compositions and methods for blocking sodium channels” (University of Virginia Patent Foundation, priority 2017, dated 2025)
